{"source": "ChEMBL document CHEMBL1157539", "about": "“Thousands of chemical starting points for antimalarial lead identification” (Nature, 2010)"}
{"system": "Plasmodium falciparum", "assay": "GSK_TCMDC: Inhibition of Plasmodium falciparum 3D7 in whole erythrocytes, using parasite LDH activity as an index of growth.", "format": "functional, organism-based", "details": "Plasmodium falciparum, 3D7", "units": {"XC50": "nM"}}
{"smiles": "O=C(N/N=C/c1nc2ccccc2[nH]1)c1cccc([N+](=O)[O-])c1", "XC50": 628}
{"smiles": "Cc1cc(N/N=C/c2ccccc2[N+](=O)[O-])c2ccc(F)cc2n1", "XC50": 350}
{"smiles": "CCN(CC)CCN(Cc1ccc(-c2ccc(C(F)(F)F)cc2)cc1)C(=O)Cn1c(CCc2cccc(F)c2F)nc(=O)c2ccc(C(F)(F)F)cc21", "XC50": 783}
{"smiles": "CCC[C@@H](/C=N/N(C)C(=O)OC(C)(C)C)NC(=O)[C@H](CC(C)C)NC(=O)c1cc2cccc(OC)c2o1", "XC50": 1080}
{"smiles": "O=C(Nc1ccc(F)cc1)NC1CCN(c2ccnc3cc(Cl)ccc23)C1", "note": "(stereo not drawn)", "XC50": 218}
{"smiles": "C=CCc1cccc(CN2CCC(c3cc(O)nc(-c4ccccn4)n3)CC2)c1O", "XC50": 1100}
{"smiles": "CSc1ccc2nccc(Nc3ccc(Oc4ccccc4)cc3)c2c1", "XC50": 871}
{"smiles": "Cc1cc(CNCCCCCNCc2cccc([N+](=O)[O-])c2)ccc1O", "XC50": 784}
{"smiles": "Cc1cccc2nc(-c3cccc(-c4cccc(NC(=O)c5cnccc5C(F)(F)F)c4)c3)[nH]c12", "XC50": 659}
{"smiles": "CCCN(CC1CC1)c1nc(C)nc2c(-c3ccccc3)cc(C)cc12", "XC50": 1020}
{"smiles": "CC(C)c1nc2c(N)nc(N)nc2nc1N", "XC50": 1310}
{"smiles": "COc1ccc(CNCCc2cccs2)cc1-c1ccc(S(=O)(=O)NCCN2CCCC2)cc1", "XC50": 655}
{"smiles": "COc1ccc2c(=NN=Cc3cccc(Cl)c3)cc(C)[nH]c2c1", "XC50": 732}
{"smiles": "Cc1ccc2c(OCCN3CCC(Cc4ccc5c(c4)NC(=O)CO5)CC3)cc(F)cc2n1", "XC50": 755}
{"smiles": "C=C(F)c1sc(CNCCCNc2nc3ccccc3[nH]2)c(C)c1Br", "XC50": 367}
{"smiles": "O=C(Nc1ccc(Cl)c(Cl)c1)Nc1ccc2nccc(N3CCN(Cc4ccccc4)CC3)c2c1", "XC50": 158}
{"smiles": "CCOC(=O)c1nc(-c2ccc(Cl)cc2)[nH]c1NC(=S)NCCCN1CCOCC1", "XC50": 868}
{"smiles": "CN1C(=C2SC(=Nc3ccc4ncccc4c3)N(Cc3ccccc3)C2=O)Sc2ccc(Cl)cc21", "XC50": 1060}
{"smiles": "Cc1cc(-c2cccc3c(C(=O)N4CCc5cc6nccc(N7CCN8CCC[C@H]8C7)c6cc54)cccc23)cc(C)n1", "XC50": 709}
{"smiles": "Cc1nc(N)nc(N)c1CCCOc1ccccc1Br", "XC50": 424}
{"smiles": "COc1ccc2nc(C)cc(Nc3ccc(Cl)c(Cl)c3)c2c1", "XC50": 441}
{"smiles": "O=C(Nc1ccc(Oc2ccccc2)cc1)N1CCC(CCN2CCC(c3c[nH]c4ccccc34)CC2)CC1", "XC50": 795}
{"smiles": "CC1(C)CCCN(c2ncc(-c3cccc(CNCc4ccccc4O)c3)cn2)C1", "XC50": 886}
{"smiles": "N=C(N)Nc1nc(-c2cccc(NC(=O)CCCCCCCON3C(N)=NC(N)=NC34CCCCC4)c2)cs1", "XC50": 43.5}
{"smiles": "O=C(Nc1ccc(C(=O)N(Cc2ccc3c(c2)OCO3)C2CCCC2)cc1)c1cccs1", "XC50": 650}
{"smiles": "CCc1cn2c3c(cc(C(=O)N[C@@H](Cc4ccccc4)[C@H](O)CNCc4ccc(C)cc4)cc13)N(C)S(=O)(=O)CC2", "XC50": 547}
{"smiles": "COc1cccc(-c2cc(C(=O)Nc3cc(Oc4ccc(O)cc4)cc([N+](=O)[O-])c3)on2)c1", "XC50": 1050}
{"smiles": "COc1ccc(NC(=O)[C@H](CC(C)C)Nc2cc(C)nc(NCCOc3ccccc3)n2)cc1", "XC50": 800}
{"smiles": "CCCCCCNCCOc1ccc(-c2nc(-c3ccccc3)c(-c3ccccc3)[nH]2)cc1", "XC50": 669}
{"smiles": "Cc1cc(N[C@@H](CC(C)C)C(=O)NCCOc2ccccc2)nc(NCCc2ccccc2)n1", "XC50": 1510}
{"smiles": "CN(C)CCC=C1c2ccccc2Sc2c(O)cc(Cl)cc21", "XC50": 277}
{"smiles": "CN(CCS(C)(=O)=O)Cc1ccc(-c2ccc3ncnc(Nc4ccc(OCc5cccc(F)c5)c(Cl)c4)c3c2)o1", "XC50": 681}
{"smiles": "O=C(CCc1cccnc1)Nc1ccc(-c2cccc(-c3nc4cc(F)ccc4[nH]3)c2)cc1", "XC50": 922}
{"smiles": "O=C(Nc1ccc(C(F)(F)F)cc1)c1cccc(S(=O)(=O)NC2CCN(CC3CCCCC3)C2)c1", "note": "(stereo not drawn)", "XC50": 690}
{"smiles": "CCCc1cn2c3c(cc(C(=O)N[C@@H](Cc4ccccc4)[C@H](O)CNC4CCOCC4)cc13)N(CC)S(=O)(=O)CC2", "XC50": 98.8}
{"smiles": "NS(=O)(=O)c1cccc(Nc2nccc(-c3cnn4ncccc34)n2)c1", "XC50": 661}
{"smiles": "COc1cccc(OC)c1OCCCOc1c(C)nc(N)nc1N", "XC50": 459}
{"smiles": "COc1ccc2[nH]cc(C3CCN(CCC4CCN(C(=O)/C=C/c5ccc(Cl)c(Cl)c5)CC4)CC3)c2c1", "XC50": 862}
{"smiles": "Fc1ccc(Nc2ccnc3cc(-c4ccc(CNCCN5CCOCC5)o4)ccc23)c(Cl)c1", "XC50": 186}
{"smiles": "CCCCCCCCCCN1C(=O)C2C(CCCCNC(C)=O)NC3(C(=O)N(Cc4ccc(C(C)(C)C)cc4)c4ccccc43)C2C1=O", "note": "(stereo not drawn)", "XC50": 993}
{"smiles": "CN(C)CCOc1ccc(-c2cc(-c3ccncc3)c(-c3ccc(Cl)c(O)c3)o2)cc1", "XC50": 214}
{"smiles": "O=C(Nc1ccc(Cl)c(Cl)c1)N1CCc2ccc(OCCCN3CCCCC3)cc2CC1", "XC50": 1520}
{"smiles": "Cc1cccc2nc(-c3ccc(-c4ccc(CN5CCCC5CN)cc4)cc3)[nH]c12", "note": "(stereo not drawn)", "XC50": 815}
{"smiles": "Cc1[nH]c(C)c(-c2ccc(-c3ccc(C(F)F)cc3)nc2)c(=O)c1Cl", "XC50": 241}
{"smiles": "CC(C)(C)Nc1cc(C(=O)N[C@@H](Cc2ccccc2)[C@H](O)CNC2CCOCC2)cc(N2CCCCS2(=O)=O)c1", "XC50": 150}
{"smiles": "c1cncc(NCc2ccc(-c3cc4ccncc4cc3OC3CCNCC3)s2)c1", "XC50": 981}
{"smiles": "CC(=O)Nc1ccc(C(=O)Nc2ccc(-c3cccc(-c4nc5cccc(C)c5[nH]4)c3)cc2)cn1", "XC50": 265}
{"smiles": "O=C(c1ccc(Br)o1)N1N=C(c2cccs2)CC1c1ccc(Br)cc1", "note": "(stereo not drawn)", "XC50": 513}
{"smiles": "O=C(C1CC1c1ccccc1)N(Cc1ccc(-c2ccc(CNCCc3ccccc3)cc2)cc1)C1CCNCC1", "note": "(stereo not drawn)", "XC50": 1110}
{"smiles": "Cn1nc(-c2ccc(CNC3CCc4ccccc43)cc2)c2cnc(NCCCN3CCCC3)nc21", "note": "(stereo not drawn)", "XC50": 1110}
{"smiles": "COc1cc(CN2CCC(N3CCc4cc(NC(=O)c5cc(C)on5)ccc43)C2)ccc1F", "note": "(stereo not drawn)", "XC50": 607}
{"smiles": "COc1cc(F)c2ncc(Cl)c(CCN3CCC(NCc4ccc5c(c4)NC(=O)CO5)CC3)c2c1", "XC50": 227}
{"smiles": "CC[C@H](C)CNC(=O)c1ccnc(-c2ccc(CNC3Cc4ccccc4C3)cc2)c1", "XC50": 569}
{"smiles": "O=C(Nc1ccc(-c2nc3ccccc3[nH]2)cc1)C1CCCN(CC2CC2)C1", "note": "(stereo not drawn)", "XC50": 946}
{"smiles": "CCCc1ccc(S(=O)(=O)NC2CCN(c3ccnc(Nc4ccc(OC)cc4)n3)C2)cc1", "note": "(stereo not drawn)", "XC50": 1190}
{"smiles": "CCC(C)c1ccc(NC(=O)C(C)c2ccc([N+](=O)[O-])cc2)cc1", "note": "(stereo not drawn)", "XC50": 176}
{"smiles": "Cc1nc(-c2ccc(-c3ccc(NC(=O)c4coc5ccc(N6CC(C)N(C)C(C)C6)cc45)cc3)c(C)c2)no1", "note": "(stereo not drawn)", "XC50": 767}
{"smiles": "COc1cc(Cc2cnc(N)nc2N)cc(OC)c1OCCNC(=O)[C@@H](N)CCC(=O)O", "XC50": 843}
{"smiles": "COc1ccc2nccc([C@@H](O)CN3CCC(NC(=O)c4ccc(C5(C(F)(F)F)N=N5)cc4)CC3)c2c1", "XC50": 931}
{"smiles": "O=S(=O)(NCCN1CCCC1)c1ccc(-c2cccc(CNCCc3cccs3)c2)s1", "XC50": 705}
{"smiles": "CC(C)CCNC(=N)Nc1ccc(OCCCCCOc2ccc(NC(=N)NCCC(C)C)cc2)cc1", "XC50": 1080}
{"smiles": "Nc1nccc2ccc(-c3cccc4ncccc34)cc12", "XC50": 52.4}
{"smiles": "COCCn1c(Sc2ncnc3sccc23)nc2ccccc21", "XC50": 879}
{"smiles": "Cc1cc(OCCCN2CCC(NS(=O)(=O)c3ccc(Cl)c(Cl)c3)C2)c2ccccc2n1", "note": "(stereo not drawn)", "XC50": 1050}
{"smiles": "c1ccc2c(c1)ncn2-c1ccnc(Nc2ccncc2)n1", "XC50": 646}
{"smiles": "COc1ccccc1NS(=O)(=O)c1cc(C(=O)Nc2ccc(N3CCOCC3)c(S(=O)(=O)Nc3ccccc3Cl)c2)ccc1Cl", "XC50": 832}
{"smiles": "CCCn1cc2c(ccc3nc(N)nc(N)c32)n1", "XC50": 81.4}
{"smiles": "O=C(NCCCN1CCCCC1)c1cccc(Nc2nccc(Nc3ccc(Oc4ccccc4)cc3)n2)c1", "XC50": 821}
{"smiles": "CC(C)c1ccc(NC(=O)c2cccc(CN3CCCN(CC4CCCCC4)CC3)c2)cc1", "XC50": 710}
{"smiles": "CCCCCCN1CCC(NCc2cccc(C(F)(F)F)c2)CC1", "XC50": 246}
{"smiles": "CCNC(=O)Nc1cccc(-c2cccc(-c3nc4cc(C(F)(F)F)ccc4[nH]3)c2)c1", "XC50": 678}
{"smiles": "CCN(c1ccc(F)cc1)S(=O)(=O)c1cc(Br)cc2c1N(C(=O)C1CC1)CC2", "XC50": 943}
{"smiles": "CC1=C(C(=O)Nc2ccc(Cl)cc2)C(c2ccncc2)n2nc(C(F)(F)F)nc2N1", "note": "(stereo not drawn)", "XC50": 935}
{"smiles": "Cc1cccc2nc(-c3ccc(-c4ccc(NC(=O)C(C)CN(C)C)cc4)cc3)[nH]c12", "note": "(stereo not drawn)", "XC50": 681}
{"smiles": "O=c1n(CC2CCCCC2)c2cc(Cl)cc(OCCNc3ccncc3)c2n1CC1CCCCC1", "XC50": 593}
{"smiles": "O=c1cc(NCCCNC2CCOc3c(Cl)cccc32)[nH]c2ccccc12", "note": "(stereo not drawn)", "XC50": 832}
{"smiles": "CN(C)c1cc(C(=O)N[C@@H](Cc2ccccc2)[C@H](O)CNC2CCCCC2)cc2[nH]ccc12", "XC50": 1070}
{"smiles": "Cc1cc(C(F)(F)F)cc(-n2ncc(-c3ccc(C(=O)NCc4ccccc4N)cc3)c2N)n1", "XC50": 453}
{"smiles": "COc1ccc(-c2c3c(=O)n(C)c(=O)n(C)c3c3nnc4ccccc4n23)cc1", "XC50": 991}
{"smiles": "COc1ccc(Oc2ccc(-c3c(O)cc(C)nc3C)cc2)cc1", "XC50": 612}
{"smiles": "O=c1c2ccccc2[nH]c2nc3ccccc3c(Nc3ccccc3)c12", "XC50": 141}
{"smiles": "CC1(C)NC(N)=NC(=N)N1OCc1ccc(-c2ccccc2)cc1", "XC50": 3.2}
{"smiles": "COc1cc2c(cc1OCCN1CCC(N)CC1)N(C(=O)/C=C/c1ccccc1Cl)CC2", "XC50": 1120}
{"smiles": "FC(F)(F)c1ccc2nccc(NCc3ccccc3)c2c1", "XC50": 1150}
{"smiles": "O=C(Nc1ccc(-c2cccc(-c3nc4cc(F)ccc4[nH]3)c2)cc1)c1ccncc1", "XC50": 719}
{"smiles": "COc1c(C)cc(I)cc1CNCCCNc1cc(=O)c2ccccc2[nH]1", "XC50": 1280}
{"smiles": "COc1ccccc1CNC(=O)c1nn(-c2ccc(Cl)cc2)c(=O)c2ccccc12", "XC50": 294}
{"smiles": "CNCCCN(C)C(=O)Oc1c(Br)c(C)nc(C)c1-c1ccc(Oc2ccc(OC(F)(F)F)cc2)cc1", "XC50": 386}
{"smiles": "Clc1cccc(C=NN=c2cc[nH]c3ccccc23)c1", "XC50": 852}
{"smiles": "CN(C)CCCN1CCN(Cc2ccc(-c3ccc(-c4nc5ccccc5[nH]4)s3)cc2)CC1", "XC50": 820}
{"smiles": "CCOc1cc(C(=O)Nc2ccc(-c3nc4ccccc4[nH]3)cc2)cc(OCC)c1OCC", "XC50": 234}
{"smiles": "O=C(NC1CCN(Cc2ccsc2)CC1)c1ccc(-c2cccc(C(F)(F)F)c2)s1", "XC50": 1440}
{"smiles": "COc1ccc(CN2CCC(NCc3cccc(-n4ccnc4)c3)CC2)cc1", "XC50": 629}
{"smiles": "CNC(=O)C1Cc2c([nH]c3c(C)cccc23)C2(N1)C(=O)Nc1ccc(OC(F)(F)F)cc12", "note": "(stereo not drawn)", "XC50": 464}
{"smiles": "CC(CO)(CO)NCc1cc2ccc3ccsc3c2c2ccccc12", "XC50": 229}
{"smiles": "CN(C)CCNC(=O)c1ccc(-c2ccc3c(Nc4ccccc4)c(C(N)=O)cnc3c2)cc1", "XC50": 728}
{"smiles": "CCCCCCCC1CC(CC(=O)Nc2ccnc3ccc(OC)cc23)CN1", "note": "(stereo not drawn)", "XC50": 511}
{"smiles": "COc1ccc(-c2ccc(NC(=O)c3cccc(Cl)c3)cc2)cc1CN1CCCN(C)CC1", "XC50": 603}
